Laboratory results: US20250223301A1, “KINASE INHIBITORS, PREPARATION METHODS AND USES THEREOF” (InventisBio Co., Ltd., priority 2022, published 2025)

Legend:
DGKz = DGKz (Homo sapiens (Human), UniProt Q13574); experiment: DGK ADP-Glo kinase assay (DGKz); format: biochemical; settings: 5 nM DGKz, 15 uM ATP
Description: Luminescence was recorded using an Tecan SPARK microplate reader.

DGKa = DGKa (Homo sapiens (Human), UniProt P23743); experiment: biochemical;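 also: biochemical DGK kinase assay, ADP-Glo luminescence from ADP made by phosphorylating 1,2-dioleoyl-sn-glycerol, 20 min compound preincubation then 40 min reaction at 25 °C, 1% DMSO control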
Description: The DGKa and DGKz kinase assays were performed using Promega ADP-Glo kit (Promega, Cat #V9102). One microliter test compound was added to a 384-well plate. Reactions were performed in a 5 uL volume by adding 2 uL mixture of DGK enzyme and ATP in assay buffer (50 mM MOPS pH 7.5, 100 mM NaCl, 10 mM MgCl2, 1 mM CaCl2, 0.0025% BSA, and 1 mM DTT). […] The enzyme solution was incubated with test compound at 25 ? for 20 min. […] The reaction was initiated by the addition of 2 uL of substrate solution (7 uM 1.2-dioleoyl-sn-glycerol, 5 mM octyl-b-D-glucopyranoside) in the 5 uL assay volume. The resulting mixture was incubated at 25° C. for 40 minutes. Next, 5 uL of ADP-Glo-reagent was added to the plate and incubated for 40 minutes. Then 10 uL of kinase detection reagent was added and incubated for 30 minutes. Luminescence was recorded using an Tecan SPARK microplate reader. 1% DMSO vehicle was used as control and no enzyme well was used as blank well.

PBMC = experiment: Human PBMC IL-2 assay; format: cell-based; settings: anti-CD3/CD28 stimulation overnight, IL-2 level
Description: PBMC (frozen) obtained from health donor were thawed in RPMI-1640 medium with 10% FBS and incubated for 4 h at 37° C. In a 96-well plate, −200,000 PBMC cells in 160 uL were added to each assay well. Ten microliter compound solution (10 uM to 0.6 nM, 8 points with 4-fold dilution) were added to cells in each well and incubated for 60 minutes at 37° C. Then 30 uL anti-CD3/CD28 antibody (Catalog #10991, Stemcell) were added to cells and incubated overnight at 37° C. After the incubation, 16 uL supernatants were transferred into a new 384-well white assay plate for cytokine analysis. IL-2 level was quantified using Human IL-2 kit (Catalog #62HIL02PEG, Cisbio) as described in the manufacturer manual.
(§1) X is log of compound concentration, Y is the IL-2 concentration, increasing as X increases.

Jurkat cells = experiment: Jurkat IL-2 assay; format: cell-based; settings: Homo sapiens, anti-CD3/CD28 stimulation overnight, IL-2 level
Description: Jurkat cells (ATCC) were cultured in RPMI-1640 medium supplemented with 10% FBS. In a 96-well plate, −250,000 cells in 130 uL were added to each assay well. Ten microliter compound solution (5 uM to 2.3 nM, 8 points with 3-fold dilution) were added to cells in each well and incubated for 60 minutes at 37° C. Then 10 uL anti-CD3/CD28 antibody (Catalog #10991, Stemcell) were added and incubated overnight at 37° C. After the incubation, 16 uL supernatants were transferred into a new 384-well white assay plate for cytokine analysis. IL-2 was quantified using Human IL-2 kit (Catalog #62HIL02PEG, Cisbio) as described in the manufacturer manual.
as §1

DGKz, sequence (Q13574 whole entry): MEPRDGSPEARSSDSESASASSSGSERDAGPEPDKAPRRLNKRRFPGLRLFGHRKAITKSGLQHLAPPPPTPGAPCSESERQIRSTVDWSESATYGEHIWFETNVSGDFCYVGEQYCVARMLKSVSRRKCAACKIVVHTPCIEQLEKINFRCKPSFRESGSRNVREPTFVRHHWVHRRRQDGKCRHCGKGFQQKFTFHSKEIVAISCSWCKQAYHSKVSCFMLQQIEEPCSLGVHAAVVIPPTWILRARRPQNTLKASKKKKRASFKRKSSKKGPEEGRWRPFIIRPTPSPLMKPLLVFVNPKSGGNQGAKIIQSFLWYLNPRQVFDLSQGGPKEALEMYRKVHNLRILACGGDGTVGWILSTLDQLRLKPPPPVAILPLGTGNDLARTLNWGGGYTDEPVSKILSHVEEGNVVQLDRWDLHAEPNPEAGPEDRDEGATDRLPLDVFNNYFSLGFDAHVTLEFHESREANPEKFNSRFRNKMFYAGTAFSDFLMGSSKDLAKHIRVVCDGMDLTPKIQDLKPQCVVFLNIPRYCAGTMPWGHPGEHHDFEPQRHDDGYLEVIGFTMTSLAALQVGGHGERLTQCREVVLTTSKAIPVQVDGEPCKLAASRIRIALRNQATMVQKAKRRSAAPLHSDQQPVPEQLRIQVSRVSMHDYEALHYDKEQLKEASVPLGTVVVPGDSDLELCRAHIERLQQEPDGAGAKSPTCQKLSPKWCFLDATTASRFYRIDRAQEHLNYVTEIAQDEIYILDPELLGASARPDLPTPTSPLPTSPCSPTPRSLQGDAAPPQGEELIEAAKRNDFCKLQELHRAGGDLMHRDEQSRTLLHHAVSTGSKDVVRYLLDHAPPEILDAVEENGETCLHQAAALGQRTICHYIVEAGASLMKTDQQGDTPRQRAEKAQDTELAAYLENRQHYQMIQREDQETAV
DGKa, sequence (P23743 whole entry): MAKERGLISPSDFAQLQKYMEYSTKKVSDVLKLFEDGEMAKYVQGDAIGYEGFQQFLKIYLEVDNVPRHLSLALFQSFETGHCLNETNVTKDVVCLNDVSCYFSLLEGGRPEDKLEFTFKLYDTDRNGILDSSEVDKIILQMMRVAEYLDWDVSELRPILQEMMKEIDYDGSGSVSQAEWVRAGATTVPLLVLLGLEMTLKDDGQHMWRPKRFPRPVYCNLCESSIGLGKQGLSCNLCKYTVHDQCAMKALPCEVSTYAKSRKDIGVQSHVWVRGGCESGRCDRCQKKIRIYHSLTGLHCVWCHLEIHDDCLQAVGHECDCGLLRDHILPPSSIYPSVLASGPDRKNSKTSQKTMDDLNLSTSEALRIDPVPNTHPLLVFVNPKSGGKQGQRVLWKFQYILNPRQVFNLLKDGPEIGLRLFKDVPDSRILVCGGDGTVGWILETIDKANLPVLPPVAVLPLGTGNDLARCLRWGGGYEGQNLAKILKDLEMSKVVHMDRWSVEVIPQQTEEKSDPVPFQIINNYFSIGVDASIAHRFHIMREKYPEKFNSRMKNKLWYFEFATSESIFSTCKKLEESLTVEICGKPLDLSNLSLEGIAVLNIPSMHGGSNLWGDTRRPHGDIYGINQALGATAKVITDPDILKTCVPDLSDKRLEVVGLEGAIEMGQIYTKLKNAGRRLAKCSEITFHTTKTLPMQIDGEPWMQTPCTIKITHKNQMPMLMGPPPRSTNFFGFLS

| IC50 (DGKz) | IC50 (DGKa) | EC50 (Jurkat cells) | SMILES | EC50 (PBMC) |
| --- | --- | --- | --- | --- |
| 236 nM | 21 nM |  | CC[C@@H]1CN(c2nc3nncn3c3ccc(C#N)nc23)[C@@H](C)CN1[C@H](CC)c1ccc(SC(F)(F)F)cc1 (stereo in doubt) [Compound 71] |  |
| 103 nM | 5 nM |  | CC[C@H]1CN([C@@H](CC)c2ccc(SC(F)(F)F)cc2)[C@H](CC)CN1c1nc2nncn2c2ccc(C#N)nc12 (stereo in doubt) [Compound 68] |  |
| 346 nM | 10 nM |  | CC[C@H]1CN([C@H](CC)c2ccc(SC(F)(F)F)cc2)[C@H](CC)CN1c1nc2nncn2c2ccc(C#N)nc12 (stereo in doubt) [Compound 69] |  |
| 130 nM | 12 nM |  | CC[C@H]1C[C@@H](c2nc3cc(C)ccc3o2)CCN1c1nc(=O)n(C)c2cc(O[C@H]3CCOC3)c(Cl)cc12 (stereo in doubt) [Compound 93] |  |
| 555 nM | 24 nM |  | CC[C@H]1CN([C@H](CC)c2cccc(C(F)(F)F)c2)[C@H](CC)CN1c1nc2nncn2c2ccc(C#N)nc12 (stereo in doubt) [Compound 106] |  |
| 124 nM | 23 nM |  | CC[C@H]1CN([C@@H](CC)c2ccc(S(F)(F)(F)(F)F)cc2)[C@H](CC)CN1c1nc(=O)n2c3c(cc(C#N)nc13)OCC2 (stereo in doubt) [Compound 83] |  |
|  |  | 21 nM | CC[C@H](c1ccc(Cl)c(C(F)(F)F)c1)N1C[C@H]2COc3c(c4nc(C#N)ccc4n(C)c3=O)N2C[C@H]1C (stereo in doubt) [Compound 317] | 105 nM |
|  |  | 473 nM | CC[C@@H]1CN2c3c(c(=O)n(C)c4ccc(C#N)nc34)OC[C@@H]2CN1[C@H](CC)c1ccc(Cl)cc1 (stereo in doubt) [Compound 243] | 212 nM |
|  |  | 218 nM | CCC[C@H](c1ccc(Cl)cc1)N1C[C@H]2COc3c(c4nc(C#N)ccc4n(C)c3=O)N2C[C@H]1CC (stereo in doubt) [Compound 312] | 49 nM |
|  |  | 77 nM | C[C@@H]1CN2c3c(c(=O)n(C)c4ccc(C#N)nc34)OC[C@@H]2CN1[C@H](C)c1ccc(C(F)F)cc1 (stereo in doubt) [Compound 314] | 22 nM |
|  |  | 565 nM | CC[C@@H]1CN2c3c(c(=O)n(C)c4ccc(C#N)cc34)OC[C@@H]2CN1[C@@H](CC)c1ccc(C(F)(F)F)cc1 [Compound 210] | 1720 nM |
|  |  | 189 nM | CC[C@@H]1CN2c3c(c(=O)n(C)c4ccc(C#N)nc34)OC[C@@H]2CN1[C@H](CC)c1ccc(C(F)(F)F)c(Cl)c1 (stereo in doubt) [Compound 245] | 314 nM |
|  |  | 64 nM | CC[C@@H]1CN2c3c(c(=O)n(C)c4ccc(C#N)nc34)OC[C@@H]2CN1[C@@H](CC)c1ccc(Cl)c(C(F)(F)F)c1 (stereo in doubt) [Compound 327] | 103 nM |
|  |  | 21 nM | CC[C@@H]1CN2c3c(c(=O)n(C)c4ccc(C#N)nc34)OC[C@@H]2CN1[C@H](c1ccc(F)cc1)c1nc(C2CC2)no1 (stereo in doubt) [Compound 160] | 75 nM |
|  |  | 339 nM | CC[C@H](c1ccc(C(F)(F)F)c(F)c1)N1C[C@H]2COc3c(c4nc(C#N)ccc4n(C)c3=O)N2C[C@H]1C (stereo in doubt) [Compound 328] | 302 nM |
|  |  | 43 nM | CCC[C@@H](c1ccc(C(F)(F)F)cc1)N1C[C@H]2COc3c(c4nc(C#N)ccc4n(C)c3=O)N2C[C@H]1CC (stereo in doubt) [Compound 153] | 85 nM |
|  |  | 503 nM | CC[C@@H]1CN2c3c(c(=O)n(C)c4ccc(C#N)nc34)N(C)C[C@@H]2CN1[C@@H](CC)c1ccc(C(F)(F)F)cc1 [Compound 221] | 624 nM |
|  |  | 122 nM | CC[C@@H]1CN2c3c(c(=O)[nH]c4ccc(C#N)nc34)OC[C@@H]2CN1[C@@H](CC)c1ccc(C(F)(F)F)cc1 [Compound 252] | 106 nM |

| IC50 (DGKz) | IC50 (DGKa) | EC50 (Jurkat cells) | SMILES | EC50 (PBMC) |
| --- | --- | --- | --- | --- |
|  |  | 256 nM | CC[C@@H]1CN2c3c(c(=O)n(C)c4ccc(C#N)nc34)OC[C@@H]2CN1[C@@H](c1ccc(C(F)(F)F)cc1)C(C)C [Compound 272] | 325 nM |
|  |  | 86 nM | CC[C@H]1CN([C@@H](CC)c2ccc(F)c(F)c2)[C@H](CC)CN1c1nc2nncn2c2ccc(C#N)nc12 (stereo in doubt) [Compound 200] | 42 nM |
|  |  | 519 nM | CC[C@@H]1CN2c3c(c(=O)n(C)c4ccc(C#N)nc34)OC[C@@H]2CN1[C@@H](CC)c1ccc(C(F)(F)F)c(F)c1 (stereo in doubt) [Compound 319] | 285 nM |
|  |  | 267 nM | CC[C@@H]1CN2c3c(c(=O)n(C)c4ccc(C#N)nc34)OC[C@@H]2CN1[C@H](CC)c1ncc(C(F)(F)F)cn1 [Compound 330] | 115 nM |
|  |  | 63 nM | CC[C@@H]1CN2c3c(c(=O)n(C)c4ccc(C#N)nc34)OC[C@@H]2CN1[C@@H](CC)c1ccc(Cl)cc1 (stereo in doubt) [Compound 244] | 11 nM |
|  |  | 1010 nM | CC[C@H]1CN([C@H](CC)c2c(Cl)cccc2Cl)[C@H](CC)CN1c1nc2nncn2c2ccc(C#N)nc12 (stereo in doubt) [Compound 209] | 1380 nM |
|  |  | 7 nM | CC[C@@H]1CN2c3c(c(=O)n(C)c4ccc(C#N)nc34)OC[C@@H]2CN1[C@@H](CC)c1ccc(C)c(F)c1 (stereo in doubt) [Compound 339] | 13 nM |
|  |  | 287 nM | CC[C@@H]1CN2c3c(c(=O)n(C)c4ccc(C#N)nc34)OC[C@@H]2CN1[C@@H](CC)c1ccc(C(F)(F)F)cc1C (stereo in doubt) [Compound 233] | 361 nM |
|  |  | 40 nM | CC[C@@H]1CN2c3c(c(=O)n(C)c4ccc(C#N)nc34)OC[C@@H]2CN1[C@@H](COC)c1ccc(C(F)(F)F)cc1 [Compound 283] | 36 nM |
|  |  | 34 nM | CC[C@@H]1CN2c3c(c(=O)n(C)c4ccc(C#N)nc34)OC[C@@H]2CN1[C@@H](CC)c1ccc(Cl)c(F)c1 (stereo in doubt) [Compound 297] | 12 nM |
|  |  | 12 nM | CC[C@@H]1CN2c3c(c(=O)n(C)c4ccc(C#N)nc34)OC[C@@H]2CN1[C@@H](c1ccc(F)cc1)c1nc(C2CC2)no1 (stereo in doubt) [Compound 159] | 41 nM |
|  |  | 1620 nM | CC[C@H]1CN2[C@@H](COC[C@@H]2c2ccc(C(F)(F)F)cc2)CN1c1nc(=O)n(C)c2ccc(C#N)nc12 [Compound 193] | 1310 nM |
|  |  | 588 nM | C[C@H]1c2cccc(-c3ccc(C(F)(F)F)cc3)c2CCN1c1nc(=O)n(C)c2ccc(C#N)nc12 [Compound 241] | 1100 nM |
|  |  | 9 nM | CC[C@@H](c1ccc(Cl)cc1F)N1C[C@H]2COc3c(c4nc(C#N)ccc4n(C)c3=O)N2C[C@H]1C (stereo in doubt) [Compound 308] | 18 nM |
|  |  | 69 nM | C[C@@H]1CN2c3c(c(=O)n(C)c4ccc(C#N)nc34)OC[C@@H]2CN1[C@@H](C)c1ccc(F)c(Cl)c1 (stereo in doubt) [Compound 260] | 89 nM |
|  |  | 189 nM | CC[C@@H](c1ccc(F)c(Cl)c1)N1C[C@H]2COc3c(c4nc(C#N)ccc4n(C)c3=O)N2C[C@H]1C (stereo in doubt) [Compound 238] | 78 nM |
|  |  | 13 nM | CC[C@@H]1CN2c3c(c(=O)n(C)c4ccc(C#N)nc34)OC[C@@H]2CN1[C@@H](CC)c1ccc(F)cc1F (stereo in doubt) [Compound 174] | 25 nM |
